According to US9932621B2, “Modulators for Sirt5 and assays for screening same” (CORNELL UNIVERSITY, priority 2010, dated 2018):
Substitutions are numbered along the chain they refer to. Entries after “also recorded” stand apart in the source; their conditions may differ. Where two headings read alike, the source gives them in different places. *1 amine or outer side, *2 acyl side, *3 side chain or, on linkers, in order; H or OH if unused. Where no end group is shown, it is not given here. The star is where a group is joined. AMC = Cc1cc(=O)oc2cc(N*)ccc12; Suc = O=C(CCC(=O)[*:2])[*:1]

What was measured:
Sirt1 [1] = target: T1, Sirt1 (Homo sapiens, UniProt Q96EB6); conditions: Sirt1, literature value; read-out: IC50, reported value in parentheses; cited from earlier work
T1 sequence (Q96EB6 1-747): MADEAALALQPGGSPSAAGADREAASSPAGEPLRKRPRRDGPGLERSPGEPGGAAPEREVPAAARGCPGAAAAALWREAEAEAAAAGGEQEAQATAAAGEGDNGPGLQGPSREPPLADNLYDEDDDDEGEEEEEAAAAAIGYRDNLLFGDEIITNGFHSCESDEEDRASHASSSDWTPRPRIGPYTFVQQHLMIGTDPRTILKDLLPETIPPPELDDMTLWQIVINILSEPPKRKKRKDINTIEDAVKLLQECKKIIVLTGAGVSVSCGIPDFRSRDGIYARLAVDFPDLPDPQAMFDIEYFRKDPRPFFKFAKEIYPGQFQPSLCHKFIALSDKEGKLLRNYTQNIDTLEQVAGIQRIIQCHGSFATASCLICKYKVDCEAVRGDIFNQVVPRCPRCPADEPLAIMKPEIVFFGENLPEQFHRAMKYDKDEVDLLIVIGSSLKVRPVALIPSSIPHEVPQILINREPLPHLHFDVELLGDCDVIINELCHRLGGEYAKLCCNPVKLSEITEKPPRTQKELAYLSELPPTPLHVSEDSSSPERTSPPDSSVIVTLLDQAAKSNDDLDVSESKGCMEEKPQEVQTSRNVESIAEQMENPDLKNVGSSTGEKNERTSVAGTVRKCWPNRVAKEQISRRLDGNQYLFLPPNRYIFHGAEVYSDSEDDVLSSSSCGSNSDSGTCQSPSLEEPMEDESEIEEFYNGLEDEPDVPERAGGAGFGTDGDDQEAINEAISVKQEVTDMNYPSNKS

Sirt5 [2] = target: T2, Sirt5 (Homo sapiens, UniProt Q9NXA8); assay: Sirt5 inhibition IC50 (desuccinylase, HPLC-based assay); format: biochemical; conditions: Sirt5 1 μM, 0.3 mM acyl peptide, 0.5 mM NAD; * = no inhibition at 100 μM
T2 construct: made in house
T2 sequence (Q9NXA8 37-310): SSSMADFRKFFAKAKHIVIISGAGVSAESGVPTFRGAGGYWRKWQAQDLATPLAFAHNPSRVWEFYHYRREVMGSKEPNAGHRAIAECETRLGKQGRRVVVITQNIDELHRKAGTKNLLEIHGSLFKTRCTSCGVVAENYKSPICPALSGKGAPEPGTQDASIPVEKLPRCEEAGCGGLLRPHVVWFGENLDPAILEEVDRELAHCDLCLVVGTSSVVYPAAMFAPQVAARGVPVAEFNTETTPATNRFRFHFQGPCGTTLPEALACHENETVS
Procedure: (§1) All assays were carried out under identical enzyme (1 μM) and substrate (0.3 mM acyl peptide, 0.5 mM NAD) concentrations.

Sirt5 [3] = target: T2, Sirt5; assay: Screening for Sirt5 inhibitors with ISGASE(SuK)-AMC in the fluorogenic assay; format: biochemical; conditions: compound 30 μM, ISGASE(SuK)-AMC 0.3 mM, Sirt5 1 μM, FIG. 13
Procedure: SirT5 (1 μM) was incubated with ISGASE(SuK)-AMC (SEQ ID NO:11) peptide (0.3 mM), NAD (0.5 mM) in Tris-HCl buffer (pH 7.4, 20 mM) with DTT (1 mM) in 60 μL reactions for 4 hours at 37° C. Then trypsin (1 μg) and CaCl2 (1 mM) were added and the reactions were incubated for 3 hours at 37° C. The reactions were the diluted with 50 μL water. The mixture (100 μL) was transferred to 96 well plate and the fluorescence was recorded by BIO-TEK® Synergy HT plate reader (Optics Position: Top, Sensitivity: 50, Excitation at the wavelength of 360 nm and Emission at the wavelength of 460 nm).
The procedure was the same as described above (Assaying Sirt5 activity on ISGASE(SuK)-AMC in the fluorogenic assay), except that different compounds (30 μM) were included in the reactions. In the desuccinylation step, Sirt5 was added last to initiate the desuccinylation reaction.

Sirt3 = target: T3, Sirt3 (Homo sapiens, UniProt Q9NTG7); assay: Sirt3 inhibition IC50; format: biochemical
T3 construct: made in house
T3 sequence (Q9NTG7 1-399): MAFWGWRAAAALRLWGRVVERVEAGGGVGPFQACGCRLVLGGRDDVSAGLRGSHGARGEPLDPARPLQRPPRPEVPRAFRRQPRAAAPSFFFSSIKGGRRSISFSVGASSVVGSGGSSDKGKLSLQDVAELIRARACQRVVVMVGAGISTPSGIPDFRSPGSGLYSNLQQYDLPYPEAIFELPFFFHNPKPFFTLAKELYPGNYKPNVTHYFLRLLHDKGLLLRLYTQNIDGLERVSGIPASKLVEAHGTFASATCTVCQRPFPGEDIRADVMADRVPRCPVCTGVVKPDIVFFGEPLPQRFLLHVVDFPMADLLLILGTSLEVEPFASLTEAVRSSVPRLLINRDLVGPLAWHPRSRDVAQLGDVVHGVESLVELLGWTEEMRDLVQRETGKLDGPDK
Procedure: as §1

Sirt2 [4] = target: T4, Sirt2 (Homo sapiens, UniProt Q8IXJ6); assay: Sirt2 inhibition IC50; format: biochemical
T4 construct: made in house
T4 sequence (Q8IXJ6 1-389): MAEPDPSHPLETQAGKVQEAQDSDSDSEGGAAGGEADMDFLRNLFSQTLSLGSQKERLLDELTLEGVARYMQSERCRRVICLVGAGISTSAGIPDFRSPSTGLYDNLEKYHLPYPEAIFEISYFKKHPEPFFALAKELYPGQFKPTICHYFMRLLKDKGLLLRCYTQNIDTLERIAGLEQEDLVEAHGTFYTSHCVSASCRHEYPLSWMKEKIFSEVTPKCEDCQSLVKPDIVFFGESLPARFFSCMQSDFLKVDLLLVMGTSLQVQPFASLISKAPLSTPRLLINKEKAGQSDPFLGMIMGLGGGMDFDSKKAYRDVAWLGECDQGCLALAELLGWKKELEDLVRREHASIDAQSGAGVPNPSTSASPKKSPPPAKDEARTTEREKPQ
Procedure: as §1

Sirt1 [5] = target: T1, Sirt1; assay: Sirt1 inhibition IC50; format: biochemical; set-up: made in house
Procedure: as §1

Sirt2 [6] = target: T4, Sirt2; assay: Secondary screening using Sirt2 and ISGASE(AcK)-AMC fluorogenic assay; format: biochemical; conditions: inhibitor 30 μM, ISGASE(AcK)-AMC 0.3 mM, Sirt2 1 μM, FIG. 15
Procedure: SirT2 (1 μM) was incubated with ISGASE(AcK)-AMC (SEQ ID NO:13) peptide (0.3 mM), inhibitors (30 μM), NAD (0.5 mM) in Tris-HCl buffer (pH 7.4, 20 mM) containing dithiothreitol (DTT, 1 mM) in a 60 μL reaction for 4 hours at 37° C. Then trypsin (1 μg) and CaCl2 (1 mM) were added and the reaction were incubated for 3 hours at 37° C. The reactions were diluted with 50 μL water. The mixture (100 μL) was transferred to 96 well plate and the fluorescence was recorded by BIO-TEK® Synergy HT (Optics Position: Top, Sensitivity: 50, Excitation at the wavelength of 360 nm and Emission at the wavelength of 460 nm).

Sirt5 Y102F = target: T5, Sirt5 Y102F (Homo sapiens, UniProt Q9NXA8, Y102F); assay: Deacylation kinetics by HPLC, mutant Sirt5 Y102F; format: biochemical; conditions: read-out: Km for peptide
T5 sequence (Q9NXA8 37-310 Y102F): T2 sequence (Q9NXA8 37-310) with Y66F
Procedure: (§2) For determination of kcat and Km, human Sirt1, Sirt2, Sirt3 and Sirt5 were measured by detecting the deacylated peptide from H3K9 acyl peptides using HPLC. Purified Sirtuin was incubated with 1.0 mM of NAD in 20 mM Tris-HCl buffer (pH 7.5) containing acyl peptides (0-750 μM) and 1 mM DTT in 60 μL reactions at 37° C. The reactions were stopped with 100 mM HCl and 160 mM acetic acid, analyzed by HPLC with a reverse phase C18 column (250×4.6 mm, 90 A, 10 μm, GraceVydac, Southborough, Mass.), with a linear gradient of 0% to 20% B for 10 min (1 mL/min). […] The kcat and Km values were obtained by curve-fitting the Vinitial/[E] versus [S] plot using KaleidaGraph. For Sirt5 R105M, the observed second order rate constant, kobs (rate/([Sirtuin][NAD])) was detected instead of kcat and Km because of the very weak deacylation activity. The experiments were done in duplicate.

Sirt5 [7] = target: T2, Sirt5; assay: Deacylation kinetics (kcat, Km) by HPLC, Sirt5; format: biochemical; conditions: wild-type Sirt5, Table 3
Procedure: as §2

Sirt5 H158Y = target: T6, Sirt5 H158Y (Homo sapiens, UniProt Q9NXA8, H158Y); assay: Deacylation kinetics by HPLC, mutant Sirt5 H158Y; format: biochemical; conditions: read-out: Km for peptide
T6 sequence (Q9NXA8 37-310 H158Y): T2 sequence (Q9NXA8 37-310) with H122Y
Procedure: as §2

Sirt5 R105M = target: T7, Sirt5 R105M (Homo sapiens, UniProt Q9NXA8, R105M); assay: Deacylation kinetics by HPLC, mutant Sirt5 R105M; format: biochemical; conditions: read-out: Km for peptide
T7 sequence (Q9NXA8 37-310 R105M): T2 sequence (Q9NXA8 37-310) with R69M
Procedure: For determination of kcat and Km, human Sirt1, Sirt2, Sirt3 and Sirt5 were measured by detecting the deacylated peptide from H3K9 acyl peptides using HPLC. […] The reactions were stopped with 100 mM HCl and 160 mM acetic acid, analyzed by HPLC with a reverse phase C18 column (250×4.6 mm, 90 A, 10 μm, GraceVydac, Southborough, Mass.), with a linear gradient of 0% to 20% B for 10 min (1 mL/min). […] The kcat and Km values were obtained by curve-fitting the Vinitial/[E] versus [S] plot using KaleidaGraph. […] The experiments were done in duplicate.

Sirt5 [8] = target: T2, Sirt5; assay: Sirt5 fluorogenic assay with KQTAR(SuK)-AMC; format: biochemical; conditions: reaction with Sirt5
Procedure: SirT5 (1 μM) was incubated with KQTAR(SuK)-AMC (SEQ ID NO: 10) peptide (0.3 mM), NAD (0.5 mM) in Tris-HCl buffer (pH 7.4, 20 mM) containing dithiothreitol (DTT, 1 mM) in a 60 μL reaction for 16 hours at 37° C. Then trypsin (1 μg) and CaCl2 (1 mM) were added and the reaction were incubated for 14 hours at 37° C. The reactions were diluted with 50 μL water. The mixture (100 μL) was transferred to 96 well plate and the fluorescence was recorded by BIO-TEK® Synergy HT plate reader (Optics Position: Top, Sensitivity: 50, Excitation at the wavelength of 360 nm and Emission at the wavelength of 460 nm).

Sirt5 [9] = target: T2, Sirt5; assay: Sirt5-catalyzed desuccinylation of AMC-succinyl peptides monitored by HPLC; format: biochemical
Procedure: […] The reactions were stopped with 200 mM HCl and 320 mM acetic acid, analyzed by HPLC with a reverse phase C18 column (250×4.6 mm, 90 A, 10 μm, GraceVydac, Southborough, Mass.), with a linear gradient of 0% to 20% B for 10 min (1 mL/min).

In the case of `N#C/C(=C\c1ccc(-c2cc(Cl)ccc2Cl)o1)C(=O)Nc1cccc2ncccc12` [AGK2], the IC50 (Sirt1 [1]) is given as over 40 µM and the IC50 (Sirt5 [2]) is given as 120 µM.
In the case of `C[C@H](NC(=O)[C@H](CCCCN)NC(=O)CNC(=O)CNC(=O)[C@@H](NC(=O)[C@H](CO)NC(=O)[C@H](CCCCNC(=S)CCC(=O)O)NC(=O)[C@H](CCCNC(=N)N)NC(=O)[C@H](C)NC(=O)[C@@H](NC(=O)[C@H](CCC(N)=O)NC(=O)[C@@H](N)CCCCN)[C@@H](C)O)[C@@H](C)O)C(=O)O` [H3K9 TSu, KQTAR(TSuK)STGGKA], the “inhibition of Sirt5 (fluorescence) in fluorogenic assay” value (Sirt5 [3]) is reported as “close to background level; also recorded: significant inhibition”, the IC50 (Sirt3; Sirt3 1 μM, 0.3 mM acyl peptide, 0.5 mM NAD, * = no inhibition at 100 μM) is reported as over 100 µM and the “inhibition of Sirt3” value (Sirt3; at 100 μM concentration) is reported as “did not inhibit”. The IC50 (Sirt2 [4]; Sirt2 1 μM, 0.3 mM acyl peptide, 0.5 mM NAD, * = no inhibition at 100 μM) was over 100 µM, the “inhibition of Sirt2” value (Sirt2 [4]; at 100 μM concentration) was “did not inhibit” and the IC50 (Sirt1 [5]; Sirt1 1 μM, 0.3 mM acyl peptide, 0.5 mM NAD, * = no inhibition at 100 μM) was over 100 µM. The “inhibition of Sirt1” value (Sirt1 [5]; at 100 μM concentration) was “did not inhibit”, the IC50 (Sirt5 [2]) was 5 µM and the “fluorescence produced by Sirt2 in fluorogenic assay” value (Sirt2 [6]) was “did not significantly decrease the fluorescence”.
“H3K9 succinyl peptide: synthesized H3K9 succinyl lysine peptide, Sirt5 substrate (KQTARK(Suc)-{AMC})” gave a Km (Sirt5 Y102F) of over 750 µM, a kcat (Sirt5 [7]) of 0.029 ± 0.002 s⁻¹ and a Km (Sirt5 [7]; read-out: Km for peptide) of 41 ± 11 µM. For the same molecule, the Km (Sirt5 H158Y) was over 750 µM and the Km (Sirt5 R105M) was over 750 µM.
In the case of KQTAR(SuK)-AMC (KQTARK(Suc)-{AMC}), the “fluorescence with Sirt5” value (Sirt5 [8]) is reported as 3600 relative fluorescence unit, the “hydrolysis by Sirt5” value (Sirt5 [9]; 1 μM Sirt5, 3 hrs) is reported as 10% and the “hydrolysis by Sirt5” value (Sirt5 [9]; 5 μM Sirt5, 3 hrs) is reported as 60%.
